Results: patent publication US4352880A (priority 1979, dated 1982)
“And” between values parts separate entries of the source, which are not always exact repeats. Identical values can stand only once. Like-named read-outs stand apart in the source and are kept apart here.

Legend:
physchem [1] = conditions: ta-1538 agar
S. typhimurium TA1535 [2] = test system: S. typhimurium TA1535
S. typhimurium TA1535 [3] = test system: S. typhimurium TA1535; remark: listed apart in the source
physchem [4] = conditions: agar
physchem [5] = conditions: minimal medium, phosphate buffer, pH 7
[6] = Diffusion bioassay for mutagenicity with microsomal activation (procarcinogens); conditions: agar plates
S. typhimurium TA1535 [7] = assay: as above; conditions: for Cmut (minimal mutagenic concentration): brackets: one standard deviation; for Cmut /co /s: from figure; for Cmut threshold value (mean): diffusion method, metabolic activation, brackets: 90% confidence intervals
S. typhimurium TA1535 [8] = assay: Homogeneous bioassay with microsomal activation, minimum mutagenic concentration; conditions: metabolic activation, 90% confidence intervals
[9] = half-lifetime .tau.1/2 from diffusion bioassay

Q: For `CC(=O)Nc1ccc2c(c1)Cc1ccccc1-2` [2-AAF, a-acetyl amino fluorene], which half-life (physchem [1]) is on record?
A: Its half-life is 0.446 h.

Q: Which results are given for `CC(=O)OCN(C)N=O` [AcDMN, Acetoxydimethylnitrosoamine]?
A: Cmut threshold value (mean) (S. typhimurium TA1535 [2]): 1.7(1.07, 3.53) μg/ml; half-lifetime .tau.1/2 from diffusion bioassay (S. typhimurium TA1535 [2]; agar): 34.5 h; C mut^hom threshold value (S. typhimurium TA1535 [3]): 1.01 ± 1.48; half-life (physchem [4]; .tau.1/2 Parametrically): 34.1 h; half-life (physchem [4]; [9]): 19.1 h; half-life (physchem [5]): 30.4 h

Q: Which “Cmut threshold value (mean)” value (S. typhimurium TA1535 [2]) does the source give for `CCOS(C)(=O)=O` [EMS, ethyl-methane-sulfonate] here?
A: Its value is 20.3(13.17, 26.97) μg/ml.

Q: And the “C mut^hom threshold value” (S. typhimurium TA1535 [3])?
A: The value was 16.85 ± 10.85.

Q: And the half-life (physchem [4]; .tau.1/2 (Table 16))?
A: The half-life was 14.5 h.

Q: And the half-life (physchem [5])?
A: Its half-life is 13.8 h.

Q: With `COc1ccc2nc3cc(Cl)ccc3c(NCCCNCCCl)c2c1` [ICR-191] as the compound, how does the “rmut (radius of mutagenic zone)” value (TA-1538; Co 10 mg/ml) read?
A: Its value is 0.73 cm.

Q: What about the “rmut (radius of mutagenic zone)” value (TA-1538; Co 100 mg/ml) of the same compound?
A: The value was 1.16 cm.

Q: And the “rmut (radius of mutagenic zone)” value (TA-1538; Co 1000 mg/ml)?
A: Its value is 1.52 cm.

Q: What about the half-life (physchem [1]) of the same compound?
A: The half-life was 2.09 h.

Q: Which results are given for `CN(N=O)C(N)=O` [MNU, N-Methyl-N-nitrosourea]?
A: Cmut threshold value (mean) (S. typhimurium TA1535 [2]): 0.27(0.13, 0.45) μg/ml; C mut^hom threshold value (S. typhimurium TA1535 [3]): 0.116 ± 2.52; half-life (physchem [4]; [9]): 0.628 h; half-life (physchem [5]): 0.599 h

Q: For `O=NN1CCOCC1` [NM, N-nitrosomorpholine], which half-life [6] is on record?
A: The half-life was 6 h.

Q: What about the “rmut (radius of mutagenic zone)” value (S. typhimurium TA1535 [7]; 0.25 μl/disc, R = 4.25, TA 1535) of the same compound?
A: Its value is 1.31 ± 0.12 cm and 1.31 ± 0.1 cm.

Q: What about the “rmut /R” value (S. typhimurium TA1535 [7]; 0.25 μl, co /s 0.29 mg/ml, R = 4.25 cm) of the same compound?
A: Its value is 0.3 ± 0.02.

Q: What about the “Cmut (minimal mutagenic concentration)” value (S. typhimurium TA1535 [7]; 0.25 μl, co /s 0.29 mg/ml) of the same compound?
A: The value was 0.64(0.436, 0.785) μg/ml.

Q: And the Cmut /co /s (S. typhimurium TA1535 [7]; 0.25 μl, co /s 0.29 mg/ml)?
A: Its Cmut /co /s is 2.2 × 10^-3.

Q: And the “rmut (radius of mutagenic zone)” value (S. typhimurium TA1535 [7]; 2.5 μl/disc, R = 4.25, TA 1535)?
A: Its value is 2.25 ± 0.12 cm.

Q: And the “rmut /R” value (S. typhimurium TA1535 [7]; 2.5 μl, co /s 0.91 mg/ml, R = 4.25 cm)?
A: The value was 0.52 ± 0.02.

Q: And the “Cmut (minimal mutagenic concentration)” value (S. typhimurium TA1535 [7]; 2.5 μl, co /s 0.91 mg/ml)?
A: The value was 0.699(0.465, 0.902) μg/ml.

Q: And the Cmut /co /s (S. typhimurium TA1535 [7]; 2.5 μl, co /s 0.91 mg/ml)?
A: The Cmut /co /s was 2.4 × 10^-4.

Q: What about the “rmut (radius of mutagenic zone)” value (S. typhimurium TA1535 [7]; 25 μl/disc, R = 4.25, TA 1535) of the same compound?
A: Its value is 3.6 ± 0.12 cm and 3.6 ± 0.3 cm.

Q: And the “rmut /R” value (S. typhimurium TA1535 [7]; 25 μl, co /s 29.1 mg/ml, R = 4.25 cm)?
A: Its value is 0.84 ± 0.07.

Q: What about the “Cmut (minimal mutagenic concentration)” value (S. typhimurium TA1535 [7]; 25 μl, co /s 29.1 mg/ml) of the same compound?
A: Its value is 0.276(0.119, 0.505) μg/ml.

Q: What about the Cmut /co /s (S. typhimurium TA1535 [7]; 25 μl, co /s 29.1 mg/ml) of the same compound?
A: The Cmut /co /s was 9.5 × 10^-6.

Q: What about the “Cmut threshold value (mean)” value (S. typhimurium TA1535 [7]) of the same compound?
A: Its value is 0.54(0.23, 0.80) μg/ml.

Q: What about the “C mut^hom threshold value” (S. typhimurium TA1535 [8]) of the same compound?
A: The value was 0.7 ± 3.6.

Q: Which results are given for `O=NN1CCCC1` [NP, nitrosopyrrolidine]?
A: half-life [6]: 5.1 h; rmut (radius of mutagenic zone) (S. typhimurium TA1535 [7]; 0.25 μl/disc, R = 4.25 cm, 3 days): 1.6 ± 0.18 cm; Cmut (minimal mutagenic concentration) (S. typhimurium TA1535 [7]; 0.25 μl, co /s 0.27 mg/ml): 0.233(0.143, 0.344) μg/ml; rmut (radius of mutagenic zone) (S. typhimurium TA1535 [7]; 2.5 μl/disc, R = 4.25 cm, 3 days): 2.5 ± 0.28 cm; Cmut (minimal mutagenic concentration) (S. typhimurium TA1535 [7]; 2.5 μl, co /s 2.71 mg/ml): 0.233(0.125, 0.449) μg/ml; rmut (radius of mutagenic zone) (S. typhimurium TA1535 [7]; 10 μl/disc, R = 4.25 cm, 3 days): 3.43 ± 0.32 cm and 3.4 ± 0.32 cm; Cmut (minimal mutagenic concentration) (S. typhimurium TA1535 [7]; 10 μl, co /s 10.85 mg/ml): 0.097(0.048, 0.212) μg/ml; rmut (radius of mutagenic zone) (S. typhimurium TA1535 [7]; 25 μl/disc, R = 4.25 cm, 3 days): 3.7 ± 0.31 cm; Cmut (minimal mutagenic concentration) (S. typhimurium TA1535 [7]; 25 μl, co /s 27.1 mg/ml): 0.108(0.082, 0.25) μg/ml; Cmut threshold value (mean) (S. typhimurium TA1535 [7]): 0.17(0.10, 0.37) μg/ml; C mut^hom threshold value (S. typhimurium TA1535 [8]): 0.58 ± 4.8
